Results: ChEMBL document CHEMBL5442379, “ASAP - SARS-CoV-2 nsp3 macrodomain single point” (2024)

Molecular target: Replicase polyprotein 1ab (Severe acute respiratory syndrome coronavirus 2) (UniProt P0DTD1)
Description: Functional biochemical assay to identify treatments for viral infectious disease that targets SARS-COV-2 nsp3 macrodomain, whereby the mechanism of action displaces an ADP-Ribose modified peptide from the binding site. Utilizing a time-resolved fluorescence method to measure binding by reading the emitted fluorescence intensity in two wavelengths.

Structure (SMILES): CC1OCCC1(O)CNC(=O)c1ncnc2[nH]ccc12 (centres undefined)
- inhibition (Concentration 50.0 uM, Number of replicates 2.0, Standard deviation 4.016 %): 1.86%

Structure (SMILES): COC(=O)[C@]1(F)CCN(C(=O)c2ccc(NC(=O)Nc3ccccc3)cc2)C1
- inhibition (Concentration 49.75 uM, Number of replicates 2.0, Standard deviation 1.195 %): -0.893%
- inhibition (Concentration 99.5 uM, Number of replicates 2.0, Standard deviation 2.11 %): 0.834%

Structure (SMILES): O=C(c1ccccc1)N1CCC(c2ccn3ncc(C(=O)N4CCc5nc[nH]c5C4)c3c2)CC1
- inhibition (Concentration 49.75 uM, Number of replicates 2.0, Standard deviation 2.532 %): 11.2%
- inhibition (Concentration 99.5 uM, Number of replicates 2.0, Standard deviation 2.098 %): 20.3%

Structure (SMILES): CC(C)(c1noc(-c2ncnc3[nH]ccc23)n1)S(C)(=O)=O
- inhibition (Concentration 50.0 uM, Number of replicates 2.0, Standard deviation 1.059 %): -0.756%

Structure (SMILES): O=C(C[C@@H](NC(=O)c1ncnc2[nH]ccc12)C1CC1)NCc1ccc(C(=O)O)cc1
- inhibition (Concentration 49.75 uM, Number of replicates 2.0, Standard deviation 1.213 %): -9.86%
- inhibition (Concentration 99.5 uM, Number of replicates 2.0, Standard deviation 0.076 %): 0.768%

Structure (SMILES): Cc1noc([C@@H]2CCCN(c3ncnc4[nH]ccc34)C2)n1
- inhibition (Concentration 50.0 uM, Number of replicates 2.0, Standard deviation 1.725 %): 1.92%

Structure (SMILES): O=C(OCc1cccc(Cl)n1)c1ncnc2[nH]ccc12
- inhibition (Concentration 50.0 uM, Number of replicates 2.0, Standard deviation 4.164 %): 11.4%

Structure (SMILES): O=S(=O)(Nc1cnc2[nH]ncc2c1)c1cnn(C2CCCC2)c1
- inhibition (Concentration 50.0 uM, Number of replicates 2.0, Standard deviation 0.633 %): 0.415%

Structure (SMILES): O=C(CCN(Cc1cccc(Cl)c1)C(=O)[C@@H]1CC1(F)F)N1CCNCC1
- inhibition (Concentration 49.75 uM, Number of replicates 2.0, Standard deviation 3.095 %): -2.07%
- inhibition (Concentration 99.5 uM, Number of replicates 2.0, Standard deviation 1.648 %): -3.76%

Structure (SMILES): Cc1ccc(O)c(CNc2ncnc3[nH]cnc23)n1
- inhibition (Concentration 50.0 uM, Number of replicates 2.0, Standard deviation 1.123 %): 0.262%
- inhibition (Concentration 100.0 uM, Number of replicates 2.0, Standard deviation 2.0 %): 6.28%

Structure (SMILES): C[C@H](NC(=O)c1cnn2ccc(C3CCN(C(=O)c4ccccc4)CC3)cc12)c1cccnc1
- inhibition (Concentration 49.75 uM, Number of replicates 2.0, Standard deviation 2.207 %): -1.84%
- inhibition (Concentration 99.5 uM, Number of replicates 2.0, Standard deviation 1.542 %): -6.21%

Structure (SMILES): CN1CCOc2cccc(NC(=O)Nc3cnc4[nH]ncc4c3)c21
- inhibition (Concentration 50.0 uM, Number of replicates 2.0, Standard deviation 1.985 %): -6.54%

Structure (SMILES): O=S1(=O)CCC[C@@H](CNc2ncnc3n[nH]cc23)C1
- inhibition (Concentration 50.0 uM, Number of replicates 2.0, Standard deviation 5.989 %): 4.59%

Structure (SMILES): COc1nc2cc(NC(=O)c3cc(N4CCNC4=O)ccc3F)ccc2[nH]1
- inhibition (Concentration 50.0 uM, Number of replicates 2.0, Standard deviation 4.804 %): -4.21%

Structure (SMILES): c1nc(-c2nc(-c3cc(C4CC4)[nH]n3)no2)c2cc[nH]c2n1
- inhibition (Concentration 50.0 uM, Number of replicates 2.0, Standard deviation 1.585 %): -4.8%
- inhibition (Concentration 50.0 uM, Number of replicates 2.0, Standard deviation 2.643 %): -2.81%
- inhibition (Concentration 100.0 uM, Number of replicates 2.0, Standard deviation […]): -2.45%

Structure (SMILES): Cc1cc(NCc2cnc3c(c2)NC(=O)CO3)cnc1C
- inhibition (Concentration 50.0 uM, Number of replicates 2.0, Standard deviation 8.489 %): 4.53%

Structure (SMILES): O=C(c1c[nH]nn1)N1CCC(c2ccn3ncc(C(=O)N4CCCCC4)c3c2)CC1
- inhibition (Concentration 49.75 uM, Number of replicates 2.0, Standard deviation 0.286 %): 14.7%
- inhibition (Concentration 99.5 uM, Number of replicates 2.0, Standard deviation 4.61 %): 25.6%

Structure (SMILES): O=C(CCCc1cccnc1)Nc1cnc2[nH]ncc2c1
- inhibition (Concentration 50.0 uM, Number of replicates 2.0, Standard deviation 5.838 %): -3.65%

Structure (SMILES): O=C(c1nnn[nH]1)N1CCC(c2ccn3ncc(C(=O)N4CCCCC4)c3c2)CC1
- inhibition (Concentration 49.75 uM, Number of replicates 2.0, Standard deviation 0.79 %): 55.1%
- inhibition (Concentration 99.5 uM, Number of replicates 2.0, Standard deviation 0.232 %): 69%

Structure (SMILES): Cn1cc([C@@H](Nc2ncnc3[nH]ccc23)c2ccccc2)cn1
- inhibition (Concentration 49.75 uM, Number of replicates 2.0, Standard deviation 1.638 %): 20%
- inhibition (Concentration 99.5 uM, Number of replicates 2.0, Standard deviation 1.226 %): 39.3%

Structure (SMILES): COc1cccc(NC(=O)c2ccc(NC(=O)Nc3ccccc3)cc2)n1
- inhibition (Concentration 49.75 uM, Number of replicates 2.0, Standard deviation 3.541 %): 4.65%
- inhibition (Concentration 99.5 uM, Number of replicates 2.0, Standard deviation 3.473 %): 5.37%

Structure (SMILES): Clc1cnc(N2CCN(c3ncnc4[nH]ccc34)CC2)c(Cl)c1
- inhibition (Concentration 50.0 uM, Number of replicates 2.0, Standard deviation 0.674 %): -2%
- inhibition (Concentration 100.0 uM, Number of replicates 2.0, Standard deviation 2.989 %): -6.57%

Structure (SMILES): Cc1ccc(S(=O)(=O)Nc2ccccc2F)cc1C(=O)Nc1cnc2[nH]ncc2c1
- inhibition (Concentration 50.0 uM, Number of replicates 2.0, Standard deviation 3.248 %): 0.764%

Structure (SMILES): NS(=O)(=O)c1ccccc1CNc1ncnc2[nH]ccc12
- inhibition (Concentration 50.0 uM, Number of replicates 2.0, Standard deviation 10.219 %): 3.66%

Structure (SMILES): Cc1cccc(OCCNc2ncnc3nc[nH]c23)c1
- inhibition (Concentration 50.0 uM, Number of replicates 2.0, Standard deviation 4.697 %): 3.91%

Structure (SMILES): Cc1cc(N)ncc1C(=O)N1CCC(c2ccn3ncc(C(=O)N4CCCCC4)c3c2)CC1
- inhibition (Concentration 49.75 uM, Number of replicates 2.0, Standard deviation 0.411 %): 19.5%
- inhibition (Concentration 99.5 uM, Number of replicates 2.0, Standard deviation 3.667 %): 32.6%

Structure (SMILES): O=C(c1ccccc1)N1CCC(c2ccn3ncc(C(=O)N4CCn5ncnc5C4)c3c2)CC1
- inhibition (Concentration 49.75 uM, Number of replicates 2.0, Standard deviation 0.529 %): -3.77%
- inhibition (Concentration 99.5 uM, Number of replicates 2.0, Standard deviation 3.194 %): -3.52%

Structure (SMILES): Cc1ccc(C(=O)N(CCC(=O)N2CCNCC2)Cc2cccc(Cl)c2)[nH]1
- inhibition (Concentration 49.75 uM, Number of replicates 2.0, Standard deviation 5.038 %): -5.9%
- inhibition (Concentration 99.5 uM, Number of replicates 2.0, Standard deviation 2.609 %): -3.94%

Structure (SMILES): Oc1ccccc1CNc1ncnc2cccnc12
- inhibition (Concentration 49.75 uM, Number of replicates 2.0, Standard deviation 0.51 %): -1.84%
- inhibition (Concentration 99.5 uM, Number of replicates 2.0, Standard deviation 1.128 %): -0.535%

Structure (SMILES): O=C(N[C@H](Cn1cnc2cc(F)c(F)cc21)C(=O)O)c1ncnc2[nH]ccc12
- inhibition (Concentration 49.75 uM, Number of replicates 2.0, Standard deviation 5.178 %): -2.04%
- inhibition (Concentration 99.5 uM, Number of replicates 2.0, Standard deviation 0.435 %): 8.39%

Structure (SMILES): CC(C)(C[C@@H]1CCCN(c2ncnc3[nH]ccc23)C1)C(N)=O
- inhibition (Concentration 50.0 uM, Number of replicates 2.0, Standard deviation 4.235 %): -1.59%

Structure (SMILES): Cc1c([C@@H](C)Nc2ncnc3[nH]ccc23)cnn1-c1ccccc1
- inhibition (Concentration 49.75 uM, Number of replicates 2.0, Standard deviation 1.063 %): 28.1%
- inhibition (Concentration 99.5 uM, Number of replicates 2.0, Standard deviation 3.12 %): 41.7%

Structure (SMILES): N[C@@H]1CCC[C@@H](C(=O)N(CCC(=O)N2CCNCC2)Cc2cccc(Cl)c2)C1
- inhibition (Concentration 49.75 uM, Number of replicates 2.0, Standard deviation 0.617 %): -0.755%
- inhibition (Concentration 99.5 uM, Number of replicates 2.0, Standard deviation 0.793 %): -1.47%

Structure (SMILES): C[C@@]1(C(N)=O)CCCN1C(=O)c1cnn2ccc(C3CCN(C(=O)c4ccccc4)CC3)cc12
- inhibition (Concentration 49.75 uM, Number of replicates 2.0, Standard deviation 3.259 %): -8.04%
- inhibition (Concentration 99.5 uM, Number of replicates 2.0, Standard deviation 21.157 %): 10.4%

Structure (SMILES): CC(C)n1cc(S(=O)(=O)Nc2cnc3[nH]ncc3c2)cn1
- inhibition (Concentration 50.0 uM, Number of replicates 4.0, Standard deviation 3.956 %): 1.55%

Structure (SMILES): O=C(NCc1ccc(Cl)cn1)c1ncnc2[nH]ccc12
- inhibition (Concentration 50.0 uM, Number of replicates 2.0, Standard deviation 1.293 %): -4.96%
- inhibition (Concentration 100.0 uM, Number of replicates 2.0, Standard deviation 0.093 %): -2.57%

Structure (SMILES): Cc1[nH]c2ncnc(NC(=O)C3CC=CC3)c2c1C
- inhibition (Concentration 50.0 uM, Number of replicates 2.0, Standard deviation 5.54 %): 73.1%

Structure (SMILES): C[C@H](NC(=O)c1ccc(NC(=O)Nc2ccccc2)cc1)c1ccccn1
- inhibition (Concentration 49.75 uM, Number of replicates 2.0, Standard deviation 2.561 %): 2.45%
- inhibition (Concentration 99.5 uM, Number of replicates 2.0, Standard deviation 6.365 %): 0.349%

Structure (SMILES): CC(C)c1c[nH]nc1NC(=O)c1ccc(NC(=O)Nc2ccccc2)cc1
- inhibition (Concentration 49.75 uM, Number of replicates 2.0, Standard deviation 3.059 %): 6.99%
- inhibition (Concentration 99.5 uM, Number of replicates 2.0, Standard deviation 3.555 %): 8.5%

Structure (SMILES): O=C(Nc1ccccc1)Nc1ccc(C(=O)NCc2ccnc(F)c2)cc1
- inhibition (Concentration 49.75 uM, Number of replicates 2.0, Standard deviation 0.77 %): -0.36%
- inhibition (Concentration 99.5 uM, Number of replicates 2.0, Standard deviation 1.377 %): 4.92%

Structure (SMILES): Cc1cc(NCc2ncccc2O)ncn1
- inhibition (Concentration 50.0 uM, Number of replicates 2.0, Standard deviation 4.706 %): -3.33%

Structure (SMILES): CC(C)Cn1cc([C@H]2N(c3ncnc4[nH]ccc34)CC23CCOCC3)cn1
- inhibition (Concentration 49.75 uM, Number of replicates 2.0, Standard deviation 1.28 %): -0.591%
- inhibition (Concentration 99.5 uM, Number of replicates 2.0, Standard deviation 6.534 %): -4.66%

Structure (SMILES): OC[C@H](Cc1ccccc1)Nc1ncnc2[nH]ccc12
- inhibition (Concentration 50.0 uM, Number of replicates 2.0, Standard deviation 2.629 %): -1.29%
- inhibition (Concentration 100.0 uM, Number of replicates 2.0, Standard deviation 0.62 %): 8.93%

Structure (SMILES): O=C(O)[C@H]1CCCCCN1C(=O)c1ncnc2[nH]ccc12
- inhibition (Concentration 50.0 uM, Number of replicates 2.0, Standard deviation 6.117 %): 11.8%

Structure (SMILES): O[C@@]1(C(F)(F)F)CCCN(c2ncnc3n[nH]cc23)CC1
- inhibition (Concentration 50.0 uM, Number of replicates 2.0, Standard deviation 1.087 %): -4.14%

Structure (SMILES): c1nc(N2CC[C@@H](n3cncn3)C2)c2cc[nH]c2n1
- inhibition (Concentration 50.0 uM, Number of replicates 2.0, Standard deviation 1.464 %): -1.54%

Structure (SMILES): COc1ccc(Nc2ncnc3[nH]ncc23)c(OC)c1
- inhibition (Concentration 50.0 uM, Number of replicates 2.0, Standard deviation 7.795 %): 2.6%

Structure (SMILES): CCC[C@@](C)(NC(=O)c1ncnc2[nH]ccc12)C(=O)OC
- inhibition (Concentration 50.0 uM, Number of replicates 2.0, Standard deviation 3.705 %): -6.62%

Structure (SMILES): O=C(N[C@@H]1COCC[C@H]1O)c1cnn2ccc(C3CCN(C(=O)c4ccccc4)CC3)cc12
- inhibition (Concentration 49.75 uM, Number of replicates 2.0, Standard deviation 1.335 %): -5.01%
- inhibition (Concentration 99.5 uM, Number of replicates 2.0, Standard deviation 2.833 %): -4.48%

Structure (SMILES): C[C@@H](O)[C@@H]1CN(C(=O)c2ncnc3[nH]ccc23)CCO1
- inhibition (Concentration 50.0 uM, Number of replicates 2.0, Standard deviation 0.15 %): -3.13%

Structure (SMILES): CC(=O)Nc1ccc(S(=O)(=O)NNc2ncnc3sccc23)cc1
- inhibition (Concentration 50.0 uM, Number of replicates 2.0, Standard deviation 2.273 %): 5.36%
